For test [1], the target named is T1, Falcipain 2 (Plasmodium falciparum, UniProt Q9N6S8).
T1 sequence (Q9N6S8 whole entry): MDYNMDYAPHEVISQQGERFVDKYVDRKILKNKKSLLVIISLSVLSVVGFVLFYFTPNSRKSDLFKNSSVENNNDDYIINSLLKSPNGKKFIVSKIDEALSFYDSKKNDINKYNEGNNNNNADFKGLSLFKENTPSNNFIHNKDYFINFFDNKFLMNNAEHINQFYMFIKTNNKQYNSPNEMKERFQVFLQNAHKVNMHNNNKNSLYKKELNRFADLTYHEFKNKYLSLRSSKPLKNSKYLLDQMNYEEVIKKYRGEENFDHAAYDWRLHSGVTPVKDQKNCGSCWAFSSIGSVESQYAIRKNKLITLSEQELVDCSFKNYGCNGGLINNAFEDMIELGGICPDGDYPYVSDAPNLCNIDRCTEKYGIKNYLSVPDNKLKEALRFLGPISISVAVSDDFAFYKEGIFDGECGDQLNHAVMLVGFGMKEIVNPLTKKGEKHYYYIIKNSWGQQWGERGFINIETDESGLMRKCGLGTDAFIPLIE
Put plainly: Inhibition of Plasmodium falciparum falcipain-2 preincubated for 30 mins followed by Z-Leu-Arg-AMC substrate addition and measured up to 15 mins by spectrofluorometric analysis.

Test [2] has as its target T2, Cysteine protease falcipain-3 (Plasmodium falciparum, UniProt Q9NAW4).
T2 sequence (Q9NAW4 whole entry): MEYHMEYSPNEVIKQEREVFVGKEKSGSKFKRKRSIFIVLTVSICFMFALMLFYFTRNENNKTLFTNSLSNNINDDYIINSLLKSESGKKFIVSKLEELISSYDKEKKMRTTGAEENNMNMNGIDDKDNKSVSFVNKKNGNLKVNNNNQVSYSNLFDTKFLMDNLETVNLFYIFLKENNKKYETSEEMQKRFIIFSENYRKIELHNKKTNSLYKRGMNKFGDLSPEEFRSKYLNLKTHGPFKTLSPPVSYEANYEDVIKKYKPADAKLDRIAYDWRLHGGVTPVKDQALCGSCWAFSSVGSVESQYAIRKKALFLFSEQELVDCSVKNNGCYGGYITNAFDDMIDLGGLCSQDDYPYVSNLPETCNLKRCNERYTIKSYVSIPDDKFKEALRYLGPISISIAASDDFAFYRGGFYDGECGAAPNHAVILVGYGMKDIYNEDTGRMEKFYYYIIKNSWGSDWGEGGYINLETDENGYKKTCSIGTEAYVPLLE
Put plainly: Inhibition of Plasmodium falciparum falcipain-3 preincubated for 30 mins followed by Z-Leu-Arg-AMC substrate addition and measured up to 15 mins by spectrofluorometric analysis.

Test [3] relates to Plasmodium falciparum. In words: Antimalarial activity against Plasmodium falciparum K2 infected in human erythrocytes assessed as parasitemia after 48 hrs by YOYO-1 staining-based flow cytometric analysis. It counts as functional, organism-based. To be noted: K2, 48 h.
Test [4] concerns Mycobacterium tuberculosis. Put plainly: Antibacterial activity against Mycobacterium tuberculosis H37Rv by resazurin dye-based assay. It counts as functional.
Test [5] concerns Plasmodium falciparum. Put plainly: Antimalarial activity against ring-stage chloroquine-susceptible Plasmodium falciparum 3D7 preincubated for 6 hrs followed by compound wash and measured after 66 hrs by Giemsa-staining based light microscopic analysis. Format: functional, organism-based.
Test [6] concerns Plasmodium falciparum. Put plainly: Antimalarial activity against ring-stage multidrug-resistant Plasmodium falciparum Dd2 preincubated for 6 hrs followed by compound wash and measured after 66 hrs by Giemsa-staining based light microscopic analysis. It counts as functional, organism-based.

≈ marks a conversion by molar mass, not a printed value.

The term IC50 denotes the point on the concentration scale where inhibition reaches its midpoint. Usually MIC stands for the lowest concentration found to suppress growth. A higher MIC goes with a need for much substance.

As to `O=C(Cn1nnc(-c2ccccc2)n1)NNC(=O)c1ccco1`, the values for the IC50 in test [1], in test [2] and in test [3] were 6.67 to 43.9 µM, 6.67 to 43.9 µM and more than 10 µM, respectively.
Consider `Cc1cc(NC(=O)Cn2nnc(-c3ccccc3NC(=O)c3ccccc3F)n2)no1`, for which the half-maximal inhibitory concentration (IC50) in test [1] was 6.67 to 43.9 µM; in test [2], 6.67 to 43.9 µM; in test [3], more than 10 µM.
Turning to `O=C(Cn1nnnc1-c1ccccc1)NN1C(=O)C(Cl)C1c1ccc(Br)cc1` (configuration not stated), the MIC in test [4] was more than 6.25 µg/mL.
In turn, `O=C(Cn1nnnc1-c1ccccc1)NN1C(=O)C(Cl)C1c1ccccc1` (configuration not stated) showed a minimal inhibitory concentration (MIC) in test [4] of more than 6.25 µg/mL.
`COc1ccc(C(=O)Nc2ccc(-c3nnn(CC(=O)Nc4cc(C)on4)n3)cc2)cc1`: the IC50 in test [1] is 6.67 to 43.9 µM; in test [2] it was 6.67 to 43.9 µM; in test [3] it was more than 10 µM.
As to `Cn1nnc(NCC2CCC3(CC2)OOC2(O3)C3CC4CC(C3)CC2C4)n1` (configuration not stated), the IC50 in test [5] turned out to be 0.0029 µM; in test [6], 0.0021 µM.
For the molecule `COc1ccc(NC(=O)Cn2nnc(-c3ccccc3NS(=O)(=O)c3ccc(NC(C)=O)cc3)n2)cc1`, the IC50 in test [1] is 6.67 to 43.9 µM; in test [2], 6.67 to 43.9 µM; in test [3], more than 10 µM.
In the case of `COc1ccc(NC(=O)Cn2nnc(-c3ccccc3NC(=O)c3cc(OC)cc(OC)c3)n2)cc1`, the IC50 in test [1] is 6.67 to 43.9 µM; in test [2], 6.67 to 43.9 µM; in test [3], more than 10 µM.
Turning to `CCCCOc1ccc(-c2nnn(CC(=O)c3ccc(Cl)cc3)n2)cc1`, the concentration for half-maximal inhibition (IC50) in test [1] is 6.67 to 43.9 µM; in test [2] it was 6.67 to 43.9 µM; in test [3], more than 10 µM.
`COc1ccc(C2C(Cl)C(=O)N2NC(=O)Cn2nnnc2-c2ccccc2)cc1` (configuration not stated) displayed an MIC in test [4] of 0.156 µg/mL (≈ 0.378 µM).
For `Cc1cc(NC(=O)Cn2nnc(-c3ccc(N)cc3)n2)no1`, the 50% inhibitory concentration (IC50) is 6.67 to 43.9 µM in test [1], 6.67 to 43.9 µM in test [2] and more than 10 µM in test [3].
`CN(C)c1ccc(C2C(Cl)C(=O)N2NC(=O)Cn2nnnc2-c2ccccc2)cc1` (configuration not stated) registered a minimum inhibitory concentration (MIC) in test [4] of 0.156 µg/mL (≈ 0.366 µM).
Consider `C1C2CC3CC1CC(C2)C31OOC2(CCC(Nc3nnn[nH]3)CC2)OO1` (configuration not stated), for which the IC50 in test [5] is 0.063 µM; in test [6], 0.0435 µM.
Turning to `c1ccc(-n2nnnc2OCC2CCC3(CC2)OOC2(O3)C3CC4CC(C3)CC2C4)cc1` (configuration not stated), the IC50 in test [5] and in test [6] was 0.0021 to 0.0244 µM in each case.
With `Cc1ccc(C2C(Cl)C(=O)N2NC(=O)Cn2nnnc2-c2ccccc2)cc1` (configuration not stated), the MIC in test [4] is more than 6.25 µg/mL.
In the case of `COc1ccc(-c2ccc(-c3nnn(CC(=O)c4ccccc4)n3)cc2)cc1`, the values for the IC50 in test [1], in test [2] and in test [3] were 6.67 to 43.9 µM, 6.67 to 43.9 µM and more than 10 µM, respectively.
`O=C(Cn1nnnc1-c1ccccc1)NN1C(=O)C(Cl)C1c1ccc([N+](=O)[O-])cc1` (configuration not stated) came in with an MIC in test [4] of more than 6.25 µg/mL.
The molecule `O=C(Cn1nnnc1-c1ccccc1)NN1C(=O)C(Cl)C1c1ccc(Cl)cc1` (configuration not stated) showed an MIC in test [4] of more than 6.25 µg/mL.
With `COc1ccc(C(=O)Cn2nnc(-c3ccccc3NC(=O)c3ccncc3)n2)cc1`, the IC50 is 6.67 to 43.9 µM in test [1], 6.67 to 43.9 µM in test [2] and more than 10 µM in test [3].
For the molecule `CC(C(=O)N1c2ccccc2CCc2ccccc21)n1nnc(-c2ccc(N3CCOCC3)cc2)n1` (configuration not stated), the concentration for half-maximal inhibition (IC50) in test [1] was 6.67 to 43.9 µM; in test [2], 6.67 to 43.9 µM; in test [3], more than 10 µM.
`CCCCOc1ccc(-c2nnn(CC(=O)Nc3c(C)ccc4ccccc34)n2)cc1`: the half-inhibitory concentration (IC50) was 6.67 to 43.9 µM in test [1], 6.67 to 43.9 µM in test [2] and more than 10 µM in test [3].
Consider `C1C2CC3CC1CC(C2)C31OOC2(CCC(Nc3nnn[nH]3)CC2)O1` (configuration not stated), for which the IC50 stood at 0.0028 µM in test [5] and 0.0025 µM in test [6].
`C[C@@H]1CC[C@H]2[C@@H](C)C(=O)O[C@@H]3O[C@@]4(C)CC[C@@H]1[C@]32OO4` [ARTEMISININ]: the IC50 in test [5] is 0.004 µM; in test [6] it was 0.0025 µM.
The matching figures for `C[C@H]1[C@@H](O)O[C@@H]2O[C@@]3(C)CC[C@H]4[C@H](C)CC[C@@H]1[C@@]24OO3` [ARTENIMOL]: 0.0047 µM and 0.0042 µM.
